Data reported in patent US11434479B2, “Sialic acid binding polypeptide” (priority 2017, dated 2022).
Positions count from the first letter of the chain named. Entries after “also recorded” stand apart in the source; their conditions may differ.

What was measured:
Test in all cases: Bio-layer Interferometry (BLI) steady-state binding to immobilized oligosaccharides
Conditions in all cases: in words
[1] = molecular target: T1, Streptococcus pneumoniae NanB fragment (residues 30-697, SEQ ID NO:4) variant Sia-PS3, D270N (Streptococcus pneumoniae serotype 4, UniProt Q54727, D270N)
T1 construct: exemplified by a NanB fragment (residues 30-697); made in house; host or cells: pET28a+ based plasmid
T1 sequence (Q54727 30-692 D270N): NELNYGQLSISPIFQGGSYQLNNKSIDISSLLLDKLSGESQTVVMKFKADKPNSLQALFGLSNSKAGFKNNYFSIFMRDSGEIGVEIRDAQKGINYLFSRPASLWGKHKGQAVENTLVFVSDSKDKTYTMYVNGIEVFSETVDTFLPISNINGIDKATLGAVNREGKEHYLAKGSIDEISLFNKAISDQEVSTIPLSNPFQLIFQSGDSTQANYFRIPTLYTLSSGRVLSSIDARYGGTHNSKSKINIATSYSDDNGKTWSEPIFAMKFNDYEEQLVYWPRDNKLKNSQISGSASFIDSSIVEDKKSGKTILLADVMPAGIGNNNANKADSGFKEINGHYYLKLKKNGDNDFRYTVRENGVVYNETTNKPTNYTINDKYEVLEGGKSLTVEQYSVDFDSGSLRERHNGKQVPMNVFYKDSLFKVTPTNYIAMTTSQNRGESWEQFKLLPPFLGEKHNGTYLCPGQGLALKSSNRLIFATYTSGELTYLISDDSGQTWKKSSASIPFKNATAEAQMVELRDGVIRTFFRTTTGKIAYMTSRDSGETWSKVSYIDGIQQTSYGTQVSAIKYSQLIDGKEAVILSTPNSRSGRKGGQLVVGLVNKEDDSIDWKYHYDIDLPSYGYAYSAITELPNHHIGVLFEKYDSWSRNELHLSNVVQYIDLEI
Source text: (§1) Lsp=lactose (no sialic acid), 3′SL=α2,3-sialyllactose, 6′SL=α2,6-sialyllactose, GD3=GD3 oligosaccharide that contains a terminal α2,8-linked Neu5Ac residue and an internal α2,3-linked Neu5Ac residue.
(§2) The pan-specific sialic acid-recognizing affinity reagent of the invention is exemplified by a NanB fragment (residues 30-697; SEQ ID NO:4) with a single mutation. Exemplary mutation sites include Y653, D270, and E541. Exemplary pan-specific affinity reagents, each having a single mutation in the NanB GH domain as noted, are shown in Table 2 and include Sia-PS1 (Y653F), Sia-PS2 (D270A), Sia-PS3 (D270N), Sia-PS4 (E541A), and Sia-PS5 (E541Q). […] They reduce (Sia-PS2 and Sia-PS3) or effectively eliminate (Sia-PS1, Sia-PS4, and Sia-PS5) catalytic activity, and they broaden specificity for sialic acid ligand binding. The pan-specific sialic acid-recognizing affinity reagent we chose for further validation study was Sia-PS1 that contains the Y653F at active site residue Tyr653. This one mutation, which involves removal of a single hydroxyl group, not only eliminates enzyme activity, but astonishingly introduces pan-specific binding into the mutated, inactivated enzyme, despite its distance from the carbohydrate binding module (CBM) domain of the NanB.
(§3) The flowchart presented in FIG. 2 outlines schematically the methods employed in Example I and II to screen, optimize and select the Lectenz® candidates. The specificity and affinity of potential Lectenz® candidates is evaluated through structurally-guided site-specific and/or site-saturation mutagenesis assays designed to enable the selection of optimal clones. Bio-layer Interferometry (BLI) is used to determine the binding kinetics and affinities for binding to glycans and glycoproteins. Affinity chromatography is performed by immobilizing the Lectenz® candidates in a column format to evaluate their ability to fractionate sialylated- and asialo-glycans and glycoconjugates. All promising Lectenz® candidates are screened against the glycan array at the CFG, which currently contains over 600 O- and N-linked glycans.
(§4) Steady-state binding constants between Lectenz® candidates and sialic acid ligands were measured by BLI.

[2] = molecular target: T2, Streptococcus pneumoniae NanB fragment (residues 30-697, SEQ ID NO:4) variant Sia-PS2, D270A (Streptococcus pneumoniae serotype 4, UniProt Q54727, D270A)
T2 construct: exemplified by a NanB fragment (residues 30-697); made in house; host or cells: pET28a+ based plasmid
T2 sequence (Q54727 30-692 D270A): T1 sequence (Q54727 30-692 D270N) with N241A
Source text: as §1, §2, §3, §4

[3] = molecular target: T3, Streptococcus pneumoniae NanB fragment (residues 30-697, SEQ ID NO:4) variant Sia-PS1, Y653F (Streptococcus pneumoniae serotype 4, UniProt Q54727, Y653F)
T3 construct: exemplified by a NanB fragment (residues 30-697); made in house; host or cells: pET28a+ based plasmid
T3 sequence (Q54727 30-692 Y653F): T1 sequence (Q54727 30-692 D270N) with N241D, Y624F
Source text: as §1, §2, §3, §4

CC(=O)N[C@H]1[C@H]([C@H](O)[C@H](O)CO)O[C@@](O[C@H]2[C@@H](O)[C@@H](CO)O[C@@H](O[C@H]3[C@H](O)[C@@H](O)C(O)O[C@@H]3CO)[C@@H]2O)(C(=O)O)C[C@@H]1O (stereo partly drawn) [3′SL, α2,3-sialyllactose]
binding affinity [1]: micromolar or sub-micromolar
KD value [2]: higher KD value
binding affinity [2]: micromolar or sub-micromolar
binding affinity [3]: micromolar or sub-micromolar; also recorded: sub-micromolar

CC(=O)N[C@H]1[C@H]([C@H](O)[C@H](O)CO)O[C@@](OC[C@H]2O[C@@H](O[C@H]3[C@H](O)[C@@H](O)C(O)O[C@@H]3CO)[C@H](O)[C@@H](O)[C@H]2O)(C(=O)O)C[C@@H]1O (stereo partly shown) [6′SL, 6′-sialyllactose (Neu5Acα2,6Galβ1, 4Glcβ, or 6′SL)]
binding affinity [1]: micromolar or sub-micromolar
binding affinity [2]: micromolar or sub-micromolar
binding affinity [3]: micromolar or sub-micromolar; also recorded: sub-micromolar

CC(=O)N[C@H]1[C@H]([C@H](O)[C@H](O)CO)O[C@@](O[C@H](CO)[C@@H](O)[C@@H]2O[C@@](O[C@H]3[C@@H](O)[C@@H](CO)O[C@@H](O[C@H]4[C@H](O)[C@@H](O)C(O)O[C@@H]4CO)[C@@H]3O)(C(=O)O)C[C@H](O)[C@H]2NC(C)=O)(C(=O)O)C[C@@H]1O (stereo partly shown) [GD3, Neu5Acα2,8Neu5Acα2,3Galβ1, 4Glcβ]
binding affinity [1]: micromolar or sub-micromolar
binding affinity [2]: micromolar or sub-micromolar
binding affinity [3]: micromolar or sub-micromolar; also recorded: sub-micromolar
